Measurements from ChEMBL document CHEMBL1201862, “PubChem BioAssay data set” (2004).
Calls of active or inactive are those of the source.

Columns and labels:
[1] = system: Streptococcus sp. 'group A'; assay: growth inhibition of control SK(-) GAS strain, dose response, counter-screen for streptokinase expression inhibitor project, luminescence, kanamycin, BacTiterGlo, confirmation (AID 1900); assay type: functional, organism-based
Streptokinase A = biological target: T1, Streptokinase A (Streptococcus pyogenes serotype M1, UniProt P10520); assay: S. pyogenes streptokinase expression inhibitors, potency, dose response, plasminogen activation absorbance, OD405 (AID 1914); assay type: functional, Streptococcus pyogenes M1 GAS;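 also: secreted streptokinase activity via plasminogen activation per viability signal from cell pellet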
T1 sequence (P10520 whole entry): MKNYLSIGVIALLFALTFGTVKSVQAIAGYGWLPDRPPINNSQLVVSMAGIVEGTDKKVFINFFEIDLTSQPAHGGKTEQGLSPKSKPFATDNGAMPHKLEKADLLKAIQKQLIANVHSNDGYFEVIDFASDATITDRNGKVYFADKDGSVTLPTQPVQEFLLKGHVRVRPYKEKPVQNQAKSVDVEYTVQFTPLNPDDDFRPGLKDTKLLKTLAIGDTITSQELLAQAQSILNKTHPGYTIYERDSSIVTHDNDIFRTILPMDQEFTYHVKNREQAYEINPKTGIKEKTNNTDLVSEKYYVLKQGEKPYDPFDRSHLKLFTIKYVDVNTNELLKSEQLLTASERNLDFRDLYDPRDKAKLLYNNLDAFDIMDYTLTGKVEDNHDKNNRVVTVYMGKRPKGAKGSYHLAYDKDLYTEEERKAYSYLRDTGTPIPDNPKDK

Streptococcus = assay: Group A Streptococcus viability loss, dose response, counter-screen for streptokinase expression inhibitor project, luminescence, BacTiterGlo (AID 1915); assay type: functional, organism-based;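 also: potency for reduction of bacterial viability or growth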
[2] = growth suppression of PTEN-null colon cells, dose response, cell-based, HCT116 PTEN knockout (AID 1047); assay type: functional;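 also: HCT116 colon tumor cells with PTEN knocked out; cells exposed to compound for 60 hours before readout; potency for loss of cell viability measured by luminescence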
[3] = growth suppression of beta-catenin-knockout colon cells, dose response, cell-based, HCT116, human colon tumor (AID 1045); assay type: functional;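 also: HCT116 colon tumor cells with beta catenin knocked out; cells exposed to compound for 60 hours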
Vero = assay: cells; assay type: functional, Chlorocebus sabaeus; conditions: Chlorocebus sabaeus, Vero
[4] = biological target: T2, Rac GTPase-activating protein 1 (Homo sapiens, UniProt Q9H0H5); assay: MgcRacGAP GTPase-activating activity inhibitors, confirmation, biochemical, ADP Hunter fluorescence, primary and confirmatory (AID 624330); assay type: functional
T2 sequence (Q9H0H5 whole entry): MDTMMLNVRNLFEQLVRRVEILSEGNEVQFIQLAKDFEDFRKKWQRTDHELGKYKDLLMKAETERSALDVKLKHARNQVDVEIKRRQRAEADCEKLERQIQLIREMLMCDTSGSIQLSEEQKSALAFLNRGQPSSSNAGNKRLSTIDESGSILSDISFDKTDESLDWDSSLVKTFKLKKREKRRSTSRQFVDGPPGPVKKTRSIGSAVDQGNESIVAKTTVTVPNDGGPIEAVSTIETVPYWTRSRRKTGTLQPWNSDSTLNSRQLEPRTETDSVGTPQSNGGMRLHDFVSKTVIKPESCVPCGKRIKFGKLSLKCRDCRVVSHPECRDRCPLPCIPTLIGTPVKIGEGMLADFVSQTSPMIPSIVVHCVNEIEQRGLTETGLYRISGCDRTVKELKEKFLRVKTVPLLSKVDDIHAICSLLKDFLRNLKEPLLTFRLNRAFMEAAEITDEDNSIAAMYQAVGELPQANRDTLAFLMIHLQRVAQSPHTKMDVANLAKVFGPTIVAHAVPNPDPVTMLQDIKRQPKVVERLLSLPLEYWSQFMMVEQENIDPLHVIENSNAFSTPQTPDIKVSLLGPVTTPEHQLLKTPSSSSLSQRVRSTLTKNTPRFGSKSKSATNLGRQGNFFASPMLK

[5] = biological target: T3, RNA-binding protein pos-1 (Caenorhabditis elegans, UniProt G5EF15); assay: inhibitors of POS-1/mex-3 RNA binding, dose response, biochemical, fluorescence polarization (AID 1964);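 also: purified POS-1 fused to maltose binding protein made in E. coli; potency of compounds blocking POS-1 binding to fluorescent RNA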
T3 sequence (G5EF15 whole entry): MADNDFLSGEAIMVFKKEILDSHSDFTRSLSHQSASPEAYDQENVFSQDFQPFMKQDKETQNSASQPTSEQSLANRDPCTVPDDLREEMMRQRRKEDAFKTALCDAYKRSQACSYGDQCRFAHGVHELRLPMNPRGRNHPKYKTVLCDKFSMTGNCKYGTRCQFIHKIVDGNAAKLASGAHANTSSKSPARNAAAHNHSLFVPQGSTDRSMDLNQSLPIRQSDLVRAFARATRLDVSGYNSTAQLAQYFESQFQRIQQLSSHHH

[6] = biological target: T4, Zinc finger protein mex-5 (Caenorhabditis elegans, UniProt Q9XUB2); assay: MEX-5/TCR-2 RNA interaction inhibitors, dose response, biochemical, C. elegans, fluorescence polarization (AID 1960)
T4 sequence (Q9XUB2 whole entry): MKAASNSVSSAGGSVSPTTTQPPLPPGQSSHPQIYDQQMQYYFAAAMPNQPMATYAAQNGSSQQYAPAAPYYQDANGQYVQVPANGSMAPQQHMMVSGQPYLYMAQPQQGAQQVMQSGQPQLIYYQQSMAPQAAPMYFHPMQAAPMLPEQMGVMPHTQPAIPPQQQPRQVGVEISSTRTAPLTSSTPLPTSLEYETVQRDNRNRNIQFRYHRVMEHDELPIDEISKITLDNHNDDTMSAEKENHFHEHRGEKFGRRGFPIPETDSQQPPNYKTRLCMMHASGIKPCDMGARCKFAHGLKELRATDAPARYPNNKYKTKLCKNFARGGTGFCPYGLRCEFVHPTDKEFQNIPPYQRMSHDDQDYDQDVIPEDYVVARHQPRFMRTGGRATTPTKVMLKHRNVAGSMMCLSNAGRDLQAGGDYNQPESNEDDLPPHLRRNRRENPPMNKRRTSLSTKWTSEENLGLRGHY

[7] = inhibitors of intracellular T. cruzi replication, confirmation, NIH3T3 host cells, beta-gal luminescence (AID 2044); assay type: functional, cell-based;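 also: intracellular parasites grown in NIH/3T3 mouse fibroblasts as host cells; luminescent beta-galactosidase reporter signal from transgenic T. cruzi replicating inside host cells; inhibitors lower the luminescence signal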
[8] = cytotoxicity toward NIH3T3 fibroblasts, dose response, counter-screen, cell-based, ATP luminescence, mouse fibroblasts (AID 2010); assay type: functional;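 also: cells exposed to compound for about 90 hours before reading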
Cytochrome P450 2C19 = Cytochrome P450 2C19 (Homo sapiens, UniProt P33261); assay: Cytochrome panel assay with activity outcomes. Panel member name: p450-cyp2c19 Compounds with AC50 equal or less than 10 uM are considered active; assay type: functional; conditions: read-out: AC50
Cytochrome P450 2C19, sequence (P33261 whole entry): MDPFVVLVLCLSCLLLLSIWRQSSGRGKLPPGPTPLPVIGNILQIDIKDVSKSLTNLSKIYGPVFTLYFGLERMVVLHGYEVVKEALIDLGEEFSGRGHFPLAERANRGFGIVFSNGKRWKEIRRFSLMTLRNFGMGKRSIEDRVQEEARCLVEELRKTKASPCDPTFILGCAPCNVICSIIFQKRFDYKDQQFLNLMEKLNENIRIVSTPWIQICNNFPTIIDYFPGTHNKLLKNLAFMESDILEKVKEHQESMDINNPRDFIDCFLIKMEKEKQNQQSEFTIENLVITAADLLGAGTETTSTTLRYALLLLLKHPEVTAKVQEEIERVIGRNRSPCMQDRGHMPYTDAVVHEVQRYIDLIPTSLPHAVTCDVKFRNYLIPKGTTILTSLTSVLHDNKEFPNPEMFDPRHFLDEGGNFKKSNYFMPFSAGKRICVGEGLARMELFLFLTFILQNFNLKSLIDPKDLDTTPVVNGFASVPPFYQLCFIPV

INS1 = assay: beta cell apoptosis inhibitors, cytokine rescue, dose response, luminescence, retest (AID 449756); assay type: functional, cell-based; conditions: Rattus norvegicus;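 also: cell death triggered by IL-1 beta plus TNF-alpha plus IFN-gamma mixture; protective hits raise ATP signal compared with cytokine alone wells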
[9] = biological target: T5, Heat shock factor protein 1 (Mus musculus, UniProt P38532); assay: inhibition of MG132-induced HSE-luciferase signal, confirmation, cell-based, NIH3T3, luminescence, dose retest (AID 2382); assay type: functional;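 also: NIH3T3 fibroblasts with HSF1-driven luciferase reporter stressed by proteasome inhibitor MG132; luminescence from HSF1-driven luciferase expression after 8 hours of MG132 stress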
T5 sequence (P38532 whole entry): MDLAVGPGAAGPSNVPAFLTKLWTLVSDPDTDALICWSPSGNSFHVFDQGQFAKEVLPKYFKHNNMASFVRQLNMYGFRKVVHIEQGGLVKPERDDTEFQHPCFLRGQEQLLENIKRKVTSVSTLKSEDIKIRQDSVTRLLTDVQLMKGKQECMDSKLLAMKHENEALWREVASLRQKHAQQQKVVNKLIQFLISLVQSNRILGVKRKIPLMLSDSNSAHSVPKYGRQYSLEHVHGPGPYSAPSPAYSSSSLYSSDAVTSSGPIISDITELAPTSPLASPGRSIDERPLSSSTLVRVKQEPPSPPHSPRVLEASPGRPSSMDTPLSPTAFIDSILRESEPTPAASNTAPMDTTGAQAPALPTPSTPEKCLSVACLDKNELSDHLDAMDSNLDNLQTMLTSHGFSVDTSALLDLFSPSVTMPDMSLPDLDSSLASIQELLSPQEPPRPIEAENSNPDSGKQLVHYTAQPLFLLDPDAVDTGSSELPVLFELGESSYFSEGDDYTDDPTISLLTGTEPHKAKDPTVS

[10] = inhibitors of clade B AD8 Env fusion, dose response, cell-based, cherry-pick (AID 652062); assay type: functional;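 also: luciferase signal from cell-cell fusion driven by HIV-1 clade B AD8 Env; potency is for inhibitors of fusion seen as a drop in luminescence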
[11] = Luminescence Cell-Based Dose Confirmation HTS to Identify Activators of 5'UTR Stem-Loop Driven Alpha-Synuclein mRNA Translation in H4 Neuroglioblastoma Cells. [Related pubchem assays: 1829 (Project Summary), 1814 (Primary HTS)]; assay type: functional
[12] = Luminescence Cell-Based Dose Response HTS to Identify Activators of Luciferase Translation or Activity in H4 […] Cells. [Related pubchem assays: 1829 (Project Summary), 1814 (Primary HTS)]; assay type: functional
H4 = assay: Luminescence Cell-Based Dose Response HTS to Identify Activators of 5'UTR Stem-Loop Driven Prion Protein mRNA Translation in H4 Neuroglioblastoma Cells. [Related pubchem assays: 1829 (Project Summary), 1814 (Primary HTS)]; assay type: functional; conditions: Homo sapiens

Cc1noc(C)c1-c1nnc(-c2ccc(OC(F)(F)F)cc2)o1
EC50 [1]: > 150 µM (not active)
EC50 (Streptokinase A): > 150 µM (not active)
EC50 (Streptococcus): > 150 µM (not active)

O=c1c2ccccc2nc(CSc2[nH]cnc3ncnc2-3)n1-c1ccccc1
EC50 [2]: 14.9 µM (active)
EC50 [3]: 28.9 µM (active)

Cc1cc(/C=C2/C(=N)N3C(=NC2=O)SN=C3S(C)(=O)=O)c(C)n1-c1ccc(F)cc1
EC50 [1]: 9.96 µM (active)
EC50 (Streptokinase A): > 150 µM (not active)
EC50 (Streptococcus): > 150 µM (not active)

CCOC(=O)c1c(O)cc(C)cc1Nc1ccccc1
EC50 [1]: > 150 µM (not active)
EC50 (Streptokinase A): 139 µM (active)
EC50 (Streptococcus): > 150 µM (not active)

CN1CCN(C(=O)CCN2C(=O)/C(=C\c3ccc(Cl)cc3)SC2=S)CC1
CC50 (Vero): 15.8 µM (active)

Oc1ccc(N2CCN(Cc3cc4c(cc3Br)OCCO4)CC2)cc1
IC50 [4]: 66.7 µM (active)

O=C(Nc1ccc(F)cc1)c1nc[nH]c1C(=O)Nc1ccccc1[N+](=O)[O-]
EC50 [2]: 3.08 µM (active)
EC50 [3]: 4.18 µM (active)

COc1ccc(NC2CCCN(C(=O)c3csc(C)n3)C2)cc1 (stereo not drawn)
IC50 [4]: 107 µM (active)

COC(=O)CCC(=O)OC1(C)C(=O)C=C2C=C(C3CC3)N(c3ccc(CO)cc3)C=C2C1=O (stereo not drawn)
EC50 [5]: 25.5 µM (active)
EC50 [6]: 23.5 µM (active)

Cc1cc([N+](=O)[O-])cc2c1NCC1CC=CC21 (stereo not drawn)
EC50 [5]: > 300 µM (not active)
EC50 [6]: > 300 µM (not active)

Nc1c(C(=O)NCc2ccc(F)cc2)c2nc3ccccc3nc2n1CCCN1CCOCC1
EC50 [2]: 21.5 µM (active)
EC50 [3]: 18.9 µM (active)

O=C(CCN1C(=O)C2C3C=CC(C4CC34)C2C1=O)Oc1cccc2cccnc12 (stereo not drawn)
EC50 [2]: 18.8 µM (active)
EC50 [3]: 16.7 µM (active)

COc1ccc(CNCCC(c2ccc(OC(C)C)cc2)C(C)C)cc1OC (stereo not drawn)
EC50 [7]: 0.416 µM (active)
EC50 [2]: 13 µM (active)
EC50 [8]: 9.8 µM (active)
EC50 [3]: 10.7 µM (active)
AC50 (Cytochrome P450 2C19): 10 µM (inconclusive)
AC50 (INS1): 12.7 µM (active)

Cc1noc(/C=C/c2cccnc2)c1[N+](=O)[O-]
EC50 [7]: 2.34 µM (active)
EC50 [8]: 18.4 µM (active)
CC50 (Vero): 17.3 µM (active)

O=C(O)c1ccccc1-n1cccc1C(=O)O
EC50 [5]: > 300 µM (not active)
EC50 [6]: > 300 µM (not active)

Cc1ccc(N2C(=O)NC(=O)/C(=C/c3cnn(-c4ccc(C)cc4)c3)C2=O)cc1
EC50 [5]: > 300 µM (not active)
EC50 [6]: 67.5 µM (active)
EC50 [9]: > 195 µM (not active)

O=C(C[C@H]1C[C@H]2c3cc(NC(=O)C4CCC4)ccc3O[C@H]2[C@H](CO)O1)NCc1ccc2c(c1)OCO2
AC50 [10]: 4.08 µM (active)

CCN1CCN(c2cc(C)c3cc(NC(=O)c4cccc(OC)c4)ccc3n2)CC1
EC50 [11]: 13.5 µM (active)
EC50 [12]: 16 µM (active)
EC50 (H4): 17.9 µM (active)
CC50 (Vero): > 25 µM (active)

O=C1c2cccc3c([N+](=O)[O-])ccc(c23)C(=O)N1c1nccs1
EC50 [2]: 21.6 µM (active)
EC50 [3]: 11.9 µM (active)

O=C(c1ccccc1F)N1CCN(Cc2ccc3c(c2)OCO3)CC1
IC50 [4]: 125 µM (active)

O=C1N=C(N/N=C/c2cccs2)SC1Cc1ccc(Cl)c(Cl)c1 (stereo not drawn)
EC50 [9]: 21 µM (active)
EC50 (Streptokinase A): > 150 µM (not active)
EC50 (Streptococcus): > 150 µM (not active)

OC(C/N=c1\sc2ccccc2n1CC(O)COc1ccccc1)COc1ccccc1 (stereo not drawn)
EC50 [1]: 8.85 µM (active)
EC50 (Streptokinase A): 10.3 µM (active)
EC50 (Streptococcus): > 150 µM (not active)

COc1cc(NC(=O)CSc2ncnc3sc4c(c23)CCCC4)c(C(=O)O)cc1OC
EC50 [1]: 20.8 µM (active)
EC50 (Streptokinase A): > 150 µM (not active)
EC50 (Streptococcus): > 150 µM (not active)

O=C(Nc1cccn(Cc2c(Cl)cccc2Cl)c1=O)c1ccc(Cl)cc1
AC50 [10]: 8.74 µM (active)

CCn1nccc1C(=O)Nc1ccc(S(=O)(=O)NC23CC4CC(CC(C4)C2)C3)cc1
EC50 [2]: 24.3 µM (active)
EC50 [3]: 27.9 µM (active)

Cc1ccc(NCc2nnc(SCC(=O)Nc3ncc(C)s3)n2Cc2ccco2)c(C)c1
EC50 [2]: 23.3 µM (active)
EC50 [3]: 23.8 µM (active)

COCCn1c(N)c(NCc2ccccc2)c(=O)[nH]c1=O
EC50 [5]: 5.47 µM (inconclusive)
EC50 [6]: 3.03 µM (active)

Cc1n[nH]c(C)c1S(=O)(=O)N1CCCC(C(=O)Nc2ccc(Br)cc2)C1 (stereo not drawn)
EC50 [5]: > 300 µM (not active)
EC50 [11]: > 120 µM (not active)
EC50 [12]: > 120 µM (not active)
EC50 (H4): > 120 µM (not active)
EC50 [6]: > 300 µM (not active)

Cc1cc2nc(N=C(N)NC(=O)C(C)C)nc(C)c2cc1C
EC50 (Streptokinase A): > 150 µM (not active)
